Earlier results, collected in patent US20260166148A1, “MAGNETOSTRICTIVE PIEZOELECTRIC NANOASSEMBLY AS CANCER CHEMOTHERAPEUTIC” (GRANT DEMARTINO INDUSTRIES LLC, priority 2021, published 2026).

Experiments:
[1] = as studied by Jun Yang et al. [18]

COc1ccc(C2=[N+]3C(=Nc4c(-c5ccccc5)c(Br)c(-c5ccc(OC)cc5)n4[B-]3(F)F)C(c3ccccc3)=C2Br)cc1 [ADPM06]
IC50 values in human tumor cells (human tumor cells; when activated (photosensitizer irradiated)): micromolar range
apoptosis induction, killing the cells (cellular effect) (human tumor cells; when activated, human tumor cells): induces apoptosis

CC(C)(N=NC(C)(C)C1=NCCN1)C1=NCCN1.Cl.Cl [AIPH, 2,2′-Azobis(2-(2-imidazolin-2-yl)propane) dihydrochloride]
water solubility [1]: excellent
